Measurements from patent US9233971B2, “Lipomacrocycles and uses thereof” (priority 2010, dated 2016).

What was measured:
SSB mRNA in liver [1] = experiment: In vivo gene knockdown, lipid particle siRNA formulation (Example 4), SSB siRNA; details: lipid particles, dose 3.2 mg/kg intravenously, CD1 mice, liver harvested three days later, real-time RT-PCR, GAPDH reference
Description: (§1) Lipid Particle formulations were made by first mixed siRNA in an aqueous solution with DOTMA in organic solvent to produce a water-insoluble precipitate. After isolating and drying the precipitate, the precipitate was dissolved in chloroform and further mixed with other lipids as following: Each lipid particle formulation was consisting of 1 part DOTMA+siRNA complex/5 parts any lipomacrocycle compound (Table 1)/1.5 parts N 6-tetrakis (3-aminopropyl)-1,3-propanediamine cholesteryl carbamate/2.2 parts 1,2-dilinoleoyl-sn-glycero-3-phosphoethanolamine/10.08 parts cholesterol PEG-660/4.32 parts cholesterol PEG-660/0.6 parts cholesterol (weight/weight). All the components were dissolved in chloroform and mixed together. Then, the mixtures were dried overnight in Speedvac. The dried formulations were hydrated by adding in certain amount of 5% dextrose water before dosing to animals intravenously.
(§2) All procedures used in animal studies conducted were approved by the Institutional Animal Care and Use Committee (IACUC) and were consistent with local, state and federal regulations as applicable. Mice, rats, and rabbits received siRNA formulations intravenously at dose volume of 0.2 ml, 1 ml, or 10 ml, respectively. Animals were sacrificed 2 to 7 days later. Tissues were harvested and mRNA was isolated with Turbocapture kit (Qiagen) for analyzing change of gene expression with real-time RT-PCR method (SensiMix SYBR One-Step Kit, Bioline). Serum was harvested for analyzing blood chemistry.
(§3) CD1 mice were dosed with lipid particle (Table 1) or liposome (Table 2) siRNA formulation intravenousely and the different tissues were harvested three days later. The gene expression was analyzed with real-time RT-PCR method (for liver, GAPDH as reference gene; for lung and bone marrow, GAPDG and β-actin as reference genes).

SSB mRNA in liver [2] = experiment: In vivo gene knockdown, liposomal siRNA formulation (Example 3), SSB siRNA; set-up: species or system CD1 mice; details: liposomal formulation, SSB siRNA, dose 3.2 mg/kg intravenously, CD1 mice, liver harvested three days later, real-time RT-PCR, GAPDH reference
Description: Each liposome formulation was made by mixing lipids of each lipomacrocycle compound (Table 1) combined with DSPC, DMG-PEG 2K, and cholesterol at the weight ratio of 3.85:0.42:0.21:0.79 in ethanol and siRNA in water. Then 5% dextrose water was added in each formulation before dosing to mice.
as §2, §3

APOB mRNA in liver = experiment: In vivo gene knockdown, lipid particle siRNA formulation (Example 4), APOB siRNA; set-up: species or system CD1 mice; details: lipid particles, APOB siRNA, CD1 mice, liver harvested three days later, real-time RT-PCR, GAPDH reference
Description: as §1, §2, §3

SMILES | Targeted mRNA remain in liver (SSB mRNA in liver [2]) | also measured
CCCCCCCCCCCCC(O)CN1CCN(CC(O)CCCCCCCCCCCC)CCN(CC(O)CCCCCCCCCCCC)CCN(CC(O)CCCCCCCCCCCC)CC1 (centres unmarked) [Compound T2C6] | 0.66 | Targeted mRNA remain in liver (SSB mRNA in liver [1]): 0.86
CCCCC(CC)COCC(O)CN(CCCN(CCCCN(CCCN(CC(O)COCC(CC)CCCC)CC(O)COCC(CC)CCCC)CCCN(CC(O)COCC(CC)CCCC)CC(O)COCC(CC)CCCC)CCCN(CC(O)COCC(CC)CCCC)CC(O)COCC(CC)CCCC)CC(O)COCC(CC)CCCC (centres unmarked) [Compound T4C3] | 0.12 | –
CCCCCCCCCCCCCCOCC(O)CN(CCN(CCN(CC(O)COCCCCCCCCCCCCCC)CC(O)COCCCCCCCCCCCCCC)CCN(CC(O)COCCCCCCCCCCCCCC)CC(O)COCCCCCCCCCCCCCC)CC(O)COCCCCCCCCCCCCCC (centres unmarked) [Compound T5C1] | 0.13 | –
CCCCC(CC)COCC(O)CN(CCN(CCN(CC(O)COCC(CC)CCCC)CC(O)COCC(CC)CCCC)CCN(CC(O)COCC(CC)CCCC)CC(O)COCC(CC)CCCC)CC(O)COCC(CC)CCCC (centres unmarked) [Compound T5C3] | 0.43 | –
CCCCCCCCCCC(O)CN(CCN(CCN(CC(O)CCCCCCCCCC)CC(O)CCCCCCCCCC)CCN(CC(O)CCCCCCCCCC)CC(O)CCCCCCCCCC)CC(O)CCCCCCCCCC (centres unmarked) [Compound T5C4] | 0.41 | –
CC(C)CCC[C@@H](C)[C@H]1CC[C@H]2[C@@H]3CC=C4C[C@@H](OC(=O)NCCN(CCN)CCN)CC[C@]4(C)[C@H]3CC[C@]12C [Compound T5ch1] | – | Targeted mRNA remain in liver (APOB mRNA in liver; dose 3 mg/kg intravenously): 0.39
CCCCC(CC)COCC(O)CN(CCN(C)CCN(CC(O)COCC(CC)CCCC)CC(O)COCC(CC)CCCC)CC(O)COCC(CC)CCCC (centres unmarked) [MdC3] | 0.24 | –
CCCCCCCCCCCCCCCCC(O)CN(CCN(C)CCN(CC(O)CCCCCCCCCCCCCCCC)CC(O)CCCCCCCCCCCCCCCC)CC(O)CCCCCCCCCCCCCCCC (centres unmarked) [MdC5] | 0.45 | –
CCCCCCCCCCCCC(O)CN(CCN(C)CCN(CC(O)CCCCCCCCCCCC)CC(O)CCCCCCCCCCCC)CC(O)CCCCCCCCCCCC (centres unmarked) [MdC6] | 1.1 | –
CCCCCCCCCCCCCCC(O)CN(CCN(C)CCN(CC(O)CCCCCCCCCCCCCC)CC(O)CCCCCCCCCCCCCC)CC(O)CCCCCCCCCCCCCC (centres unmarked) [MdC7] | 0.25 | –
CCCCCCCCCCOCC(O)CN(CCCN(CCCN(CC(O)COCCCCCCCCCC)CC(O)COCCCCCCCCCC)CC(O)COCCCCCCCCCC)CCCN(CC(O)COCCCCCCCCCC)CC(O)COCCCCCCCCCC (centres unmarked) [NsC2] | 0.1 | –
CCCCCCCCCCC(O)CN(CCCN(CCCN(CC(O)CCCCCCCCCC)CC(O)CCCCCCCCCC)CC(O)CCCCCCCCCC)CCCN(CC(O)CCCCCCCCCC)CC(O)CCCCCCCCCC (centres unmarked) [NsC4] | 0.13 | –
CCCCCCCCCCCCCCC(O)CN(CCCN(CCCN(CC(O)CCCCCCCCCCCCCC)CC(O)CCCCCCCCCCCCCC)CC(O)CCCCCCCCCCCCCC)CCCN(CC(O)CCCCCCCCCCCCCC)CC(O)CCCCCCCCCCCCCC (centres unmarked) [NsC7] | 0.1 | –
CCCCCCCCCCCCCCOCC(O)CN(CCCN(CCCN(CC(O)COCCCCCCCCCCCCCC)CC(O)COCCCCCCCCCCCCCC)CCCN(CC(O)COCCCCCCCCCCCCCC)CC(O)COCCCCCCCCCCCCCC)CC(O)COCCCCCCCCCCCCCC (centres unmarked) [TaC1] | 0.1 | Targeted mRNA remain in liver (APOB mRNA in liver; dose 0.8 mg/kg intravenously): 0.81
CCCCCCCCCCOCC(O)CN(CCCN(CCCN(CC(O)COCCCCCCCCCC)CC(O)COCCCCCCCCCC)CCCN(CC(O)COCCCCCCCCCC)CC(O)COCCCCCCCCCC)CC(O)COCCCCCCCCCC (centres unmarked) [TaC2] | 0.13 | –
CCCCCCCCCCC(O)CN(CCCN(CCCN(CC(O)CCCCCCCCCC)CC(O)CCCCCCCCCC)CCCN(CC(O)CCCCCCCCCC)CC(O)CCCCCCCCCC)CC(O)CCCCCCCCCC (centres unmarked) [TaC4] | 0.12 | –
CCCCCCCCCCCCC(O)CN(CCCN(CCCN(CC(O)CCCCCCCCCCCC)CC(O)CCCCCCCCCCCC)CCCN(CC(O)CCCCCCCCCCCC)CC(O)CCCCCCCCCCCC)CC(O)CCCCCCCCCCCC (centres unmarked) [TaC6] | 0.17 | –
CCCCCCCCCCCCCCC(O)CN(CCCN(CCCN(CC(O)CCCCCCCCCCCCCC)CC(O)CCCCCCCCCCCCCC)CCCN(CC(O)CCCCCCCCCCCCCC)CC(O)CCCCCCCCCCCCCC)CC(O)CCCCCCCCCCCCCC (centres unmarked) [TaC7] | 0.33 | –
